Test results taken from patent US20200405881A1, “CELL BASED METHODS AND COMPOSITIONS FOR THERAPEUTIC AGENT DELIVERY AND TREATMENTS USING SAME” (UNIVERSITY OF WASHINGTON, priority 2017, published 2020).

Experiments:
[1] = test system: primary macrophages; assay: Free resiquimod and galunisertib testing, toxicity (Example 9); assay type: cell-based, human; details: Resiquimod 1 ug/ml and/or Galunisertib 56 nM, alone or in combination
Description: (§1) Methods: CD14+ monocytes were isolated from PBMCs and differentiated to macrophages in RPMI/10% FBS with 10 ng/mL GM-CSF or 25 ng/ml M-CSF for 6 days. Macrophages were incubated with Resiquimod (1 ug/ml) and/or Galunisertib (56 nM) for 1 hour, then stimulated with 1 ug LPS/100U/ml IFNg to determine impact on viability using flow cytometry of cells and pro-inflammatory responsiveness using a 30plex for human cytokines on cell supernatant 24 hours after stimulation. Expression of bFGF, IL-1B, GCSF, IL10, 1L^13, IL6, IL12, Rantes, MIP1a, GMCSF, MIP1B, MCP1, IL15, EGF, IL5, HGF, VEGF, IFNg, IFNa, IL1RA, TNFa, IL7, IP10, IL2R, MIG, and IL8 was measured in the following treatment groups: M1 control, M1 resiquimod, M1 galunisertib, M1 resiquimod+galunisertib, M1 LPS/IFNg+resiquimod, M1 LPS/IFNg+galunisertib, M1 LPS/IFNg+resiquimod, +galunisertib, M2 control, M2 resiquimod, M2 galunisertib, M2 resiquimod+galunisertib, M2 LPS/IFNg+resiquimod, M2 LPS/IFNg+galunisertib, and M LPS/IFNg+resiquimod, +galunisertib (data not shown). […]

[2] = test system: macrophages; assay: Toxicity of drugamers to macrophages (Examples 5 and 6); assay type: cell-based; details: 50 or 500 ng/mL drugamer; data not shown
Description: Methods: CD14+ monocytes were isolated from PBMCs and differentiated to macrophages in RPMI/10% FBS with 10 ng/mL GM-CSF. After 6 days in culture, cells were replated into a 12 well dish, with 250K cells/well. The following day, they were mock transduced or transduced with vector control (EGFRt) or membrane-bound anti-FITC:EGFRt. Media was changed every 3 days. Seven days after transduction, all cells were washed twice with PBS and treated with either 50 or 500 ng/mL drugamer, which contained FITC and CMP8, in PBS. After a 15 min incubation at 37° C., cells were washed twice with PBS and one group of cells (“15 min”) was non-enzymatically detached with VERSENE™ and immediately fixed for flow with 2% paraformaldehyde. After the PBS wash, the other group of cells was allowed to recover in RP10 for 72 hours before detaching/fixing
Methods: CD14+ monocytes were isolated from PBMCs and differentiated to macrophages in RPMI/10% FBS with 10 ng/mL GM-CSF. After 6 days in culture, cells were replated into a 12 well dish, with 250K cells/well. The following day, they were mock transduced or transduced with vector control (EGFRt) or membrane-bound anti-FITC:EGFRt. Media was changed every 3 days. […] Rhodamine fluorescence was measured, indicating the presence of drugamer following 10 days in culture (data not shown).

[3] = test system: macrophages; assay: Free resiquimod and galunisertib testing, cytokines and phenotype (Example 9); assay type: cell-based, human; details: Galunisertib 56 nM for 1 hour, on its own
Description: as §1

[4] = test system: M1 polarized macrophages; assay: Free PI103 testing, 30plex cytokines, M1 macrophages (Example 8); assay type: cell-based, human; details: 500 nM PI103 for 1 hour, then LPS/IFNg, 24 hours
Description: (§2) Methods: CD14+ monocytes were isolated from PBMCs and differentiated to macrophages in RPMI/10% FBS with 10 ng/mL GM-CSF or 25 ng/ml M-CSF for 6 days. Macrophages were incubated with 500 nM PI103 for 1 hour, then stimulated with 1 ug LPS/100U/ml IFNg to determine impact on viability using flow cytometry of cells and pro-inflammatory responsiveness using a 30plex for human cytokines on cell supernatant 24 hours after stimulation. The expression of MIP1B, MCP1, IL15, EGF, HGF, VEGF, IFNg, IFNa, IL1RA, TNFa, IL7, IP10, IL2R, MIG, IL4, and IL8 was determined for each of the following groups: M1 control, M1 PI103, M1 LPS/IFNg, M1 PI103 LPS/IFNg, M2 control, M2 PI103, M2 LPS/IFNg, and M2 PI103 LPS/IFNg (data not shown). A summary of the significant data when using t-test to compare between treatment groups with and without Pi103 is shown for M1 macrophages in FIG. 22A and M2 macrophages in FIG. 22B.

[5] = test system: M2 polarized macrophages; assay: Free PI103 testing, 30plex cytokines, M2 macrophages (Example 8); assay type: cell-based, human; details: 500 nM PI103 for 1 hour, then LPS/IFNg, 24 hours
Description: as §2

[6] = test system: MCSF polarized M2 macrophages; assay: Free PI103 testing, flow cytometry of surface markers (Example 8); assay type: cell-based, human; details: 500 nM PI103
Description: as §2, with “22B. Flow cytometry staining included Live/Dead, HLA-DR, CD11b and CD14 to confirm expression of macrophage surface markers and viability (data not shown), as well as CD206 (anti-inflammatory macrophage marker; data not shown), CD163 (anti-inflammatory macrophage marker; data not shown), CD80 and CD86 (costimulatory molecules; data not shown).” for “22B.”

[7] = test system: CCR expressing CAR T cells; assay: Exhaustion marker expression on CAR T cells cultured with macrophage derived IL-7 (Example 10); assay type: cell-based; details: in contrast to culture with recombinant IL-7, FIG. 23C
Description: Methods: CD14+ monocytes were isolated from PBMCs and differentiated to macrophages in RPMI/10% FBS with 10 ng/mL GM-CSF. After 6 days in culture, cells were replated into a 12 well dish, with 250K cells/well. The following day, they were mock transduced or transduced with vector control (EGFRt) or a vector encoding constitutive IL-7 under the control of the EF1a promoter. Autologous T cells were transduced with a chimeric cytokine receptor shown on FIG. 23A, and an anti-EGFRvIII specific CAR. T cells were magnetically separated based on CD4 and CD8 expression and expanded in vitro using Miltenyi CD3/CD28 beads and frozen. CFSE Cell Trace labeled CD4 or CD8 T cells were used in proliferation assays in response to IL-7 transduced macrophages.

For `CCOCc1nc2c(N)nc3ccccc3c2n1CC(C)(C)O` [resiquimod], the “toxicity to primary macrophages” value [1] was “neither molecule alone or in combination is toxic to primary macrophages”.

`O=C1CCC2(Cc3ccc(Cl)cc3)Cc3cc(O)ccc3C2=C1c1ccc(OCCN2CCCCC2)cc1` (stereo not shown) [CMP8, 9a-(4-Chlorobenzyl)-7-hydroxy-4-[4-(2-piperidin-1-ylethoxy)phenyl]-1,2,9,9a-tetrahydro-3H-fluoren-3-one] was tested, and the toxicity to macrophages [2] was “toxicity is linked to CMP8”.

`Cc1cccc(-c2nn3c(c2-c2ccnc4ccc(C(N)=O)cc24)CCC3)n1` [Galunisertib] was tested, and the “phenotypic or functional response to stimulation” value [3] was “little impact on phenotypic or functional response to stimulation” and the “toxicity to primary macrophages” value [1] was “neither molecule alone or in combination is toxic to primary macrophages”.

For `Oc1cccc(-c2nc(N3CCOCC3)c3oc4ncccc4c3n2)c1` [PI103], the pro-inflammatory cytokine production [4] was “decrease”, the “pro-inflammatory TNFalpha production” value [5] was “increase” and the “antigen presentation surface proteins CD80 and CD86” value [6] was “increase”. The “surface markers consistent with an anti-inflammatory phenotype” value [6] was “decrease”.

B1: macrophage derived IL-7: IL-7 produced by macrophages transduced with a vector encoding constitutive IL-7 (protein, UniProt P13232 26-177, looked up)
Interleukin-7: DCDIEGKDGKQYESVLMVSIDQLLDSMKEIGSNCLNNEFNFFKRHICDANKEGMFLFRAARKLRQFLKMNSTGDFDLHLLKVSEGTTILLNCTGQVKGRKPAALGEAQPTKSLEENKSLKEQKKLNDLCFLKRLLQEIKTCWNKILMGTKEH
For B1, the “expression of exhaustion markers TIM3, PD-1, and CD95” value [7] was “reduced” and the “expression of exhaustion markers TIM3, PD-1, and CD95” value ([7]; listed as GEM derived IL-7) was “reduces exhaustion marker expression”.
